Measurements as given in US20090043123A1, “Dilute Stabilized Peracetic Acid Production and Treatment Process” (priority 2007, published 2009).

Key:
[1] = cited from earlier work
microorganisms = conditions: as low as 1 or 2 ppm peracetic acid; cited from earlier work
[2] = Stability/decomposition of peracetic acid formed in buffered aqueous medium (Example 1, FIG. 4); type: physicochemical; conditions: 25° C.
Source text: The mole ratio of hydrogen peroxide to acetic anhydride used in this Example 1 was 5.7 moles H2O2 per mole of acetic anhydride, a mole ratio that provided a large stoichiometric excess of hydrogen peroxide. Three pH values were used: 10.0, 6.8 and 4.5. The aqueous medium in each study was appropriately buffered to maintain the specific pH value throughout the duration of the run.
In each of the three runs, the operating procedure was as follows. A dilute aqueous buffered hydrogen peroxide solution, containing 585 ppm H2O2, was prepared and maintained at a temperature of 25° C. No hydrogen peroxide stabilizers were added to the solution. Acetic anhydride, undiluted (i.e., 100%) and in an amount sufficient to provide the desired 5.7:1 mole ratio of H2O2:acetic anhydride, was added to the buffered hydrogen peroxide solution. Measurements of peracetic acid and hydrogen peroxide concentrations were obtained from samples taken periodically over a period of 180 minutes. Results of these three studies, as peracetic acid concentration vs. time, are plotted in the graph shown as FIG. 4.

[3] = aqueous solution; cited from earlier work

Compound | solubility in water [1] | activity at very low concentrations (microorganisms) | peracetic stability ([2]; pH 6.8, buffered aqueous medium, 5.7:1 H2O2:acetic anhydride, followed over 180 minutes) | decomposition of the peracetic acid formed ([2]; pH 10.0, buffered aqueous medium, after peracetic acid formation was complete) | acid dissociation constant (pKa) [3]
CC(=O)OC(C)=O [Acetic anhydride] | less than 3 wt % | – | – | – | –
Peracetic acid | – | very active | relatively good | high | 8.2
